Counter-ions that a name gives are not always drawn.

The test deals with T1, human HSD1 (recombinant HSD1) (Homo sapiens, UniProt P28845).
T1 construct: made in house
T1 sequence (P28845 whole entry): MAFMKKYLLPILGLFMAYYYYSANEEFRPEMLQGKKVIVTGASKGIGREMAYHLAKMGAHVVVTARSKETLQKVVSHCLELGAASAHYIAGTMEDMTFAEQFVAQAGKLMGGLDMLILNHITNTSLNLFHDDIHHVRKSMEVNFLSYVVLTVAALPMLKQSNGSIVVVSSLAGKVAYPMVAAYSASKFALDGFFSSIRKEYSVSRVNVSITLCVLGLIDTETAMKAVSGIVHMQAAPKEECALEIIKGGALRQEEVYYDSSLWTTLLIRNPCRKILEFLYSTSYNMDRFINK
Nature of the test: In vitro HSD1 activity inhibitory action, SPA of cortisone to cortisol conversion. The format is biochemical. The following applies: recombinant human HSD1 0.1 μg/ml, 500 μM NADPH, 16 nM 3H cortisone, room temperature 90 min, read-out: hHSD1 IC50. How it is done: In Vitro HSD1 (Hydroxysteroid Dehydrogenase 1) Activity Inhibitory Action
The HSD1 inhibitory activity was examined by quantitative determination by an SPA (scintillation proximity assay) system of the suppressive action on the conversion from cortisone to cortisol using human HSD1 (hereinafter recombinant HSD1) expressed using a baculo-virus system as an enzyme source. For the reaction, a reagent was added to a 96 well plate (96 well Opti-plates™-96 (Packard)) to the following final concentration and a volume of 100 μl was reacted at room temperature for 90 min. The reaction solution used was 0.1 μg/ml recombinant HSD1, 500 μM NADPH, 16 nM ^3H cortisone (Amersham Biosciences, 1.78 Tbq/mol) dissolved in 0.1% BSA (Sigma)-containing PBS and the test drug was 2 μl of a compound solution (dissolved in DMSO). After 90 min, the reaction was stopped by adding PBS (40 μl, containing 0.1% BSA (Sigma)) containing 0.08 μg of anti-cortisol mouse monoclonal antibody (East Coast Biologics), 365 μg SPA PVT mouse antibody-binding beads (Amersham Biosciences) and 175 μM carbenoxolone (Sigma) to the reaction solution. After the completion of the reaction, the plate was incubated overnight at room temperature and the radioactivity was measured by Topcount (Packard). For control, the value (0% inhibition) of the well containing 2 μl of DMSO instead of the test drug was used, and for positive control, the value (100% inhibition) of the well containing carbenoxolone instead of the test drug at the final concentration of 50 μM was used. The inhibition (%) of the test drug was calculated by ((value of control−value of test drug)/(value of control−value of positive control))×100 (%). The IC50 value was analyzed using a computer-based curve fitting soft.
The IC50 is the concentration at which inhibition is half-maximal. As to `Cn1c(C2CCN(c3c(Cl)cncc3Cl)CC2)nnc1C1(c2ccc(Cl)cc2)CC1` [Ex. 1-1, 3′,5′-dichloro-4-(5-(1-(4-chlorophenyl)cyclopropyl)-4-methyl-4H-[1,2,4]triazol-3-yl)-3,4,5,6-tetrahydro-2H-[1,4′]bipyridyl hydrochloride], the IC50 is 10 to 1000 nM.

In the case of `Cn1c(C2CCN(c3ncccc3Cl)CC2)nnc1C1(c2ccccc2)CCCC1` [Ex. 1-2], the IC50 was less than 10 nM.

As for `CC(=O)N1CCC(c2nnc(C3(c4ccccc4)CC3)n2C)CC1` [Ex. 1-4], the IC50 is 10 to 1000 nM.

Consider `OCCn1c(C2CCN(c3c(Cl)cncc3Cl)CC2)nnc1C1(c2ccccc2)CC1` [Ex. 1-5], for which the IC50 is less than 10 nM.

Turning to `NCCn1c(C2CCN(c3c(Cl)cncc3Cl)CC2)nnc1C1(c2ccccc2)CC1` [Ex. 1-6], the IC50 lay in the range of 10 to 1000 nM.

Turning to `CC(=O)NCCn1c(C2CCN(c3c(Cl)cncc3Cl)CC2)nnc1C1(c2ccccc2)CC1` [Ex. 1-7], the IC50 was in the range of 10 to 1000 nM.

`COC(=O)CCn1c(C2CCN(c3c(Cl)cncc3Cl)CC2)nnc1C1(c2ccccc2)CC1` [Ex. 1-8]: the IC50 was less than 10 nM.

In the case of `CNC(=O)CCn1c(C2CCN(c3c(Cl)cncc3Cl)CC2)nnc1C1(c2ccccc2)CC1` [Ex. 1-10], the IC50 lay in the range of 10 to 1000 nM.

As to `Cn1c(C2(c3ccccc3)CC2)nnc1[C@H]1CC[C@H](Oc2ccc(Cl)cc2Cl)CC1` [Ex. 1-11], the IC50 fell in the range of 10 to 1000 nM.

For `Cn1c(C2CCN(Cc3ccc(Cl)cc3Cl)CC2)nnc1C1(c2ccccc2)CC1` [Ex. 1-12], the IC50 is 10 to 1000 nM.

Consider `Cn1c(C2CCN(c3c(Cl)cncc3Cl)CC2)nnc1C1(c2ccccc2)CCCC1` [Ex. 1-13], for which the IC50 was less than 10 nM.

`Cn1c(C2CCN(c3ncccc3Cl)CC2)nnc1C1(c2ccccc2)CC1` [Ex. 1-14]: the IC50 was less than 10 nM.

Consider `Cn1c(C2CCN(c3c(Cl)cncc3Cl)CC2)nnc1C1(c2ccccc2)CC1` [Ex. 1-15], for which the IC50 is less than 10 nM.

Take `Cn1c(C2CCN(c3c(Cl)cncc3Cl)CC2)nnc1C1(c2ccccc2)CCNCC1` [Ex. 1-16]: the IC50 was in the range of 10 to 1000 nM.

On to `Cn1c(-c2ccc(Cl)cc2Cl)nnc1C1(c2ccccc2)CC1` [Ex. 1-18], for which the concentration for half-maximal inhibition (IC50) is less than 10 nM.

Regarding `Cn1c(-c2ccc([N+](=O)[O-])cc2Cl)nnc1C1(c2ccccc2)CC1` [Ex. 1-20], the IC50 was less than 10 nM.

`CC(=O)Nc1ccc(-c2nnc(C3(c4ccccc4)CC3)n2C)c(Cl)c1` [Ex. 1-21]: the IC50 is less than 10 nM.

As for `Cn1c(-c2ccc(NS(C)(=O)=O)cc2Cl)nnc1C1(c2ccccc2)CC1` [Ex. 1-22], the IC50 was less than 10 nM.

For `Cn1c(-c2ccc(NC(=O)CO)cc2Cl)nnc1C1(c2ccccc2)CC1` [Ex. 1-23], the IC50 is less than 10 nM.

Regarding `COCC(=O)Nc1ccc(-c2nnc(C3(c4ccccc4)CC3)n2C)c(Cl)c1` [Ex. 1-24], the half-inhibitory concentration (IC50) is less than 10 nM.

Turning to `CN(C)CC(=O)Nc1ccc(-c2nnc(C3(c4ccccc4)CC3)n2C)c(Cl)c1` [Ex. 1-25], the IC50 is less than 10 nM.

For `Cn1c(-c2ccc(N)cc2Cl)nnc1C1(c2ccccc2)CC1` [Ex. 1-26], the IC50 was less than 10 nM.

Take `Cn1c(-c2ccc(N3CCCC3=O)cc2Cl)nnc1C1(c2ccccc2)CC1` [Ex. 1-27]: the IC50 lay within 10 to 1000 nM.

Consider `CCCC(=O)Nc1ccc(-c2nnc(C3(c4ccccc4)CC3)n2C)c(Cl)c1` [Ex. 1-28], for which the IC50 is less than 10 nM.

As to `CC(C)C(=O)Nc1ccc(-c2nnc(C3(c4ccccc4)CC3)n2C)c(Cl)c1` [Ex. 1-29], the IC50 is less than 10 nM.

For `Cn1c(-c2ccc(NC(=O)N3CCOCC3)cc2Cl)nnc1C1(c2ccccc2)CC1` [Ex. 1-30], the IC50 was less than 10 nM.

Regarding `Cn1c(-c2ccc(NC(=O)CN3CCOCC3)cc2Cl)nnc1C1(c2ccccc2)CC1` [Ex. 1-31], the IC50 is less than 10 nM.

Regarding `Cn1c(-c2ccc(NC3CCN(C(=O)OC(C)(C)C)CC3)cc2Cl)nnc1C1(c2ccccc2)CC1` [Ex. 1-32], the IC50 was less than 10 nM.

For the compound `CN(C)C(=O)Nc1ccc(-c2nnc(C3(c4ccccc4)CC3)n2C)c(Cl)c1` [Ex. 1-33], the IC50 was in the range of 10 to 1000 nM.

For the compound `Cn1c(-c2ccc(NS(N)(=O)=O)cc2Cl)nnc1C1(c2ccccc2)CC1` [Ex. 1-34], the IC50 is less than 10 nM.

For `Cn1c(-c2ccc(NC(N)=O)cc2Cl)nnc1C1(c2ccccc2)CC1` [Ex. 1-35], the IC50 was less than 10 nM.

With `Cn1c(-c2ccc(N3CCOC3=O)cc2Cl)nnc1C1(c2ccccc2)CC1` [Ex. 1-36], the IC50 was less than 10 nM.

For the compound `CCOC(=O)Nc1ccc(-c2nnc(C3(c4ccccc4)CC3)n2C)c(Cl)c1` [Ex. 1-38], the IC50 was less than 10 nM.

In the case of `Cn1c(-c2ccc(N3CCNC3=O)cc2Cl)nnc1C1(c2ccccc2)CC1` [Ex. 1-39], the IC50 is less than 10 nM.

For `COC1CCN(C(=O)Nc2ccc(-c3nnc(C4(c5ccccc5)CC4)n3C)c(Cl)c2)CC1` [Ex. 1-40], the IC50 was in the range of 10 to 1000 nM.

`Cn1c(-c2ccc(NC(=O)N3CCCC(O)C3)cc2Cl)nnc1C1(c2ccccc2)CC1` (stereo not shown) [Ex. 1-41]: the IC50 was in the range of 10 to 1000 nM.

For `Cn1c(-c2ccc(NC(=O)N3CCC(O)CC3)cc2Cl)nnc1C1(c2ccccc2)CC1` [Ex. 1-42], the IC50 lay within 10 to 1000 nM.

Regarding `Cn1c(-c2ccc(NC(=O)CN3CCC(O)CC3)cc2Cl)nnc1C1(c2ccccc2)CC1` [Ex. 1-43], the IC50 lay within 10 to 1000 nM.

As for `Cn1c(-c2ccc(NC(=O)CN3CCCC(O)C3)cc2Cl)nnc1C1(c2ccccc2)CC1` (stereo not shown) [Ex. 1-44], the IC50 was in the range of 10 to 1000 nM.

As to `COC1CCN(CC(=O)Nc2ccc(-c3nnc(C4(c5ccccc5)CC4)n3C)c(Cl)c2)CC1` [Ex. 1-45], the IC50 was 10 to 1000 nM.

On to `Cn1c(-c2ccc(N3CCOCC3)cc2)nnc1C1(c2ccccc2)CC1` [Ex. 1-46], for which the IC50 fell in the range of 10 to 1000 nM.

`CC(=O)Nc1ccc(-c2nnc(C3(c4ccc(F)cc4)CC3)n2C)c(Cl)c1` [Ex. 1-47]: the IC50 is less than 10 nM.

Take `Cn1c(-c2ccc(N3CCNCC3)cc2Cl)nnc1C1(c2ccccc2)CC1` [Ex. 1-48]: the IC50 lay within 10 to 1000 nM.

As to `CC(=O)N1CCN(c2ccc(-c3nnc(C4(c5ccccc5)CC4)n3C)c(Cl)c2)CC1` [Ex. 1-49], the IC50 was less than 10 nM.

For the compound `Cn1c(-c2ccc(N3CCN(S(C)(=O)=O)CC3)cc2Cl)nnc1C1(c2ccccc2)CC1` [Ex. 1-50], the half-inhibitory concentration (IC50) was less than 10 nM.

Regarding `CC(C)C(=O)N1CCN(c2ccc(-c3nnc(C4(c5ccccc5)CC4)n3C)c(Cl)c2)CC1` [Ex. 1-51], the IC50 was less than 10 nM.

Turning to `Cn1c(-c2ccc(N3CCCCC3)cc2Cl)nnc1C1(c2ccccc2)CC1` [Ex. 1-53], the IC50 is less than 10 nM.

`Cn1c(-c2ccc(N3CCC(O)CC3)cc2Cl)nnc1C1(c2ccccc2)CC1` [Ex. 1-54]: the IC50 was less than 10 nM.

Take `Cn1c(-c2ccc(N3CCOCC3)cc2Cl)nnc1C1(c2ccc(F)cc2)CC1` [Ex. 1-55]: the IC50 was less than 10 nM.

On to `CC1CCN(c2ccc(-c3nnc(C4(c5ccccc5)CC4)n3C)c(Cl)c2)CC1` [Ex. 1-56], for which the concentration for half-maximal inhibition (IC50) was less than 10 nM.

Take `Cn1c(-c2ccc(N3CCCC3)cc2Cl)nnc1C1(c2ccccc2)CC1` [Ex. 1-57]: the IC50 is less than 10 nM.

`COC(=O)C1CCN(c2ccc(-c3nnc(C4(c5ccccc5)CC4)n3C)c(Cl)c2)CC1` [Ex. 1-58]: the IC50 was less than 10 nM.

`Cn1c(-c2ccc(N3CCC(C(=O)O)CC3)cc2Cl)nnc1C1(c2ccccc2)CC1` [Ex. 1-59]: the IC50 was in the range of 10 to 1000 nM.

Turning to `CNC(=O)C1CCN(c2ccc(-c3nnc(C4(c5ccccc5)CC4)n3C)c(Cl)c2)CC1` [Ex. 1-60], the IC50 was less than 10 nM.

Regarding `Cn1c(-c2ccc(N3CCC4(CC3)OCCO4)cc2Cl)nnc1C1(c2ccccc2)CC1` [Ex. 1-61], the IC50 was in the range of 10 to 1000 nM.

As to `COCCOC(=O)C1CCN(c2ccc(-c3nnc(C4(c5ccccc5)CC4)n3C)c(Cl)c2)CC1` [Ex. 1-62], the IC50 was less than 10 nM.

For the compound `Cn1c(-c2ccc(N3CCC(NC(=O)OC(C)(C)C)CC3)cc2Cl)nnc1C1(c2ccccc2)CC1` [Ex. 1-63], the IC50 is less than 10 nM.

Regarding `Cn1c(-c2ccc(N3CCC(N)CC3)cc2Cl)nnc1C1(c2ccccc2)CC1` [Ex. 1-64], the 50% inhibitory concentration (IC50) is 10 to 1000 nM.

Regarding `Cn1c(-c2ccc(N3CCCC(O)C3)cc2Cl)nnc1C1(c2ccccc2)CC1` (stereo not shown) [Ex. 1-66], the IC50 was less than 10 nM.

As for `COc1ccc(COc2ccc(-c3nnc(C4(c5ccccc5)CC4)n3C)c(Cl)c2)cc1` [Ex. 1-67], the IC50 was less than 10 nM.

In the case of `Cn1c(-c2ccc(O)cc2Cl)nnc1C1(c2ccccc2)CC1` [Ex. 1-68], the IC50 is less than 10 nM.

With `Cn1c(-c2ccc(OCC(N)=O)cc2Cl)nnc1C1(c2ccccc2)CC1` [Ex. 1-69], the IC50 is less than 10 nM.

In the case of `COC(=O)c1ccc(-c2nnc(C3(c4ccccc4)CC3)n2C)c(Cl)c1` [Ex. 1-70], the IC50 was less than 10 nM.

With `Cn1c(-c2ccc(S(C)(=O)=O)cc2Cl)nnc1C1(c2ccccc2)CC1` [Ex. 1-71], the IC50 was less than 10 nM.

For the compound `Cn1c(-c2ccc(C(=O)O)cc2Cl)nnc1C1(c2ccccc2)CC1` [Ex. 1-72], the IC50 is 10 to 1000 nM.

Regarding `Cn1c(-c2ccc(C(N)=O)cc2Cl)nnc1C1(c2ccccc2)CC1` [Ex. 1-73], the IC50 is less than 10 nM.

For the compound `Cn1c(-c2ccc(C(=O)N3CCOCC3)cc2Cl)nnc1C1(c2ccccc2)CC1` [Ex. 1-74], the half-inhibitory concentration (IC50) fell in the range of 10 to 1000 nM.

The record behind these values is patent publication US8153631B2, “Triazole compounds and uses related thereto” (Amgen Inc., priority 2003, dated 2012).
